Experimental data published in patent US9351998B2, “Methods of nourishing animals” (MariCal, Inc., priority 2008, dated 2016).

Experiments:
[1] = Nonstressed pen trial, serum parameters of broiler chickens given feed additives; type: in vivo, broiler chickens (Cobb); settings: feed additive, MC0100 10 mg/kg or Mintrex Zn 250 mg/kg, Day 14
Source text: Male Cobb strain broiler chickens were reared in standard minipens and fed standard feed.

chicken CaSR = assay: CaSR dependent ERK 1/2 phosphorylation (Western blot) in HEK cells transfected with chicken CaSR; type: cell-based; settings: 1 micromolar MC 0100
Protocol: HEK cells transfected with the chicken CaSR were cultured under standard conditions (DMEM with 10% FCS). Confluent flasks were serum-starved overnight in DMEM supplemented with 0.2% BSA and pre-incubated for 60 min at 37° C. in the following medium: 125 mM NaCl, 4 mM KCl, 20 mM Hepes, 0.1% glucose, 0.8 mM NaH2PO4, 1 mM MgCl2, 0.1% BSA, 0.5 mM CaCl2, pH 7.45. The cells were then incubated in the same medium without BSA in the presence of different mineral chelates at different concentrations (see below) for 15 min at 37° C. At the end of the incubation treatment media was removed and cells were washed with PBS and than lysed in 250 microliter of M-PER lysis buffer (Pierce Chemical Company, Rockford, Ill.) containing 10 ul/ml of protease inhibitors (Pierce Chemical Company, Rockford, Ill.). Cell lysates were centrifuged for 10 min at 4° C. at 14,000×g. The protein content in the supernatants was analyzed using the BCA Protein Assay system from Pierce Chemical Company, Rockford, Ill. Equal amounts of protein (20 ug) were combined with 4× loading buffer and […] DTT, heated to 95° C., separated by SDS gel electrophoresis and electrotransferred to PVD membranes. The membranes were incubated in 1% BSA in TBS-T (TRIS-buffered saline containing Tween 20 at 0.1%) overnight. After 4 washes in TBS-T the membranes were incubated with primary antibody (anti phosphoERK at 1:400 dilution; this antibody recognizes the phosphorylated form of ERK 1/2) for 1.5 hours at room temperatures, washed 4 times and incubated with secondary antibody (anti mouse at 1:50,000 dilution). After 4 washes in TBS-T the membranes were developed using the ECL Western Blotting system.
The experiments described in FIGS. 34 A and B used the following metal chelate treatments: ZnProteinate, CuProteinate and MnProteinate (Balchem Corporation, New Hampton, N.Y.) at the following concentrations: 0.025% and 2.5%, or at a concentration of 0.025% with 1 micromolar MC 0100 (a calcimimetic); or various concentrations of bacitracin Zn.

COc1cccc([C@@H](C)NCCCc2ccccc2)c1 [MC0100]
mean serum calcium concentration compared to Control [1]: significant reductions | effect on ERK1/2 phosphorylation response to 0.025% Cu Proteinate (chicken CaSR): net reduction | effect on ERK1/2 phosphorylation response to 0.025% Mn Proteinate (chicken CaSR): strongly enhanced
